# Source: US20260138961A1, “MODULATORS OF MITOCHONDRIAL DNA REPLICATION” (Pretzel Therapeutics, Inc., priority 2022, published 2026)
# Molecular target: T1, POLγA:R309C (Homo sapiens, UniProt P54098, R309C)
# T1 sequence (P54098 1-1239 R309C): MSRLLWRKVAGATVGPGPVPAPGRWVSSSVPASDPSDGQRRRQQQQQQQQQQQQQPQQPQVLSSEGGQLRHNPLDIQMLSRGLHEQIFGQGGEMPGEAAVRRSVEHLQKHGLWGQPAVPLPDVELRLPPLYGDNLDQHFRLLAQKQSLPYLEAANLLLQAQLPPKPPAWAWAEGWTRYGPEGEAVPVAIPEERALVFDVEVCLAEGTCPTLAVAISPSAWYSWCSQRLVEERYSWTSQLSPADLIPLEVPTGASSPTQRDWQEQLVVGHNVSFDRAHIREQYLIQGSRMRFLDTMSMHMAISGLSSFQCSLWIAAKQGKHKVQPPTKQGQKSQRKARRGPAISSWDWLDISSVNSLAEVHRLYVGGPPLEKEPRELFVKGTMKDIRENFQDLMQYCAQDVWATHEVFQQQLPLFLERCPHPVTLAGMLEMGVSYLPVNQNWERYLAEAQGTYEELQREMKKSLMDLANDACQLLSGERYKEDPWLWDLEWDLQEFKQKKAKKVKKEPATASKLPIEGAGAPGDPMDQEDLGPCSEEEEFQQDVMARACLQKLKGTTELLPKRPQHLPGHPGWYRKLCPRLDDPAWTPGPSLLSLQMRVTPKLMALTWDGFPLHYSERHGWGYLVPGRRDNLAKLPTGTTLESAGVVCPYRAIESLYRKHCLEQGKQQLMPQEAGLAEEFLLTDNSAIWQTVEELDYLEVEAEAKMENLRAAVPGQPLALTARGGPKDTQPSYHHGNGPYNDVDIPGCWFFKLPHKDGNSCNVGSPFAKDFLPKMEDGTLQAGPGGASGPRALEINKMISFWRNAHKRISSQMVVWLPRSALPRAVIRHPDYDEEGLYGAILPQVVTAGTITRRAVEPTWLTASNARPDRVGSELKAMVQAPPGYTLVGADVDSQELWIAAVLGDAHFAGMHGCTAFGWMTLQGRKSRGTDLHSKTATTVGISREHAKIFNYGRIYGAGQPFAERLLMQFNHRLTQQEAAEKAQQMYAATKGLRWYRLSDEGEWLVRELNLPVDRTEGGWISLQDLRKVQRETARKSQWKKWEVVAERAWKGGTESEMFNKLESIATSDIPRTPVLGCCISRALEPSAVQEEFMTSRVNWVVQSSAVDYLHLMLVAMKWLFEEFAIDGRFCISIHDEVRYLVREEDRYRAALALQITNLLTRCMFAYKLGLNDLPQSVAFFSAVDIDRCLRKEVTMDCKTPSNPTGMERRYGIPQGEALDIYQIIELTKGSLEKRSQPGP
# T1 sequence (Q9UHN1 1-485 partner): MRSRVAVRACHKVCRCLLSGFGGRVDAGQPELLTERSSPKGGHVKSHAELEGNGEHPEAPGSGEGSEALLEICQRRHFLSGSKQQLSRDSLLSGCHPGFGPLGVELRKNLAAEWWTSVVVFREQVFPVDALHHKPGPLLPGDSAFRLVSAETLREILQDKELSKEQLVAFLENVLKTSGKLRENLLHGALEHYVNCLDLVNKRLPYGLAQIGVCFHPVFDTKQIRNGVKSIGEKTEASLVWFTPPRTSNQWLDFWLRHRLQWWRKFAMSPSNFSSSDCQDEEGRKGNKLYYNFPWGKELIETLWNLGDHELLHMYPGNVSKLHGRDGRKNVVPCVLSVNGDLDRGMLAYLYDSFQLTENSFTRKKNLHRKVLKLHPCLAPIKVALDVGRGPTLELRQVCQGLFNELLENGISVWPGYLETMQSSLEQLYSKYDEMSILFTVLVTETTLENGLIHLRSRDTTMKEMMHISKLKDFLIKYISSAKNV
# Assay: DNA polymerization assay, POLγA:R309C mutant
# Assay type: biochemical
# Details: stimulation of polymerase activity, primed M13mp18 ssDNA, 37° C. 2 hours
# Protocol: DNA Polymerization Assay to Monitor Effects on Human Wildtype POLγ and Four Disease-Causing Mutant Variants of Human POLγ.
# The ability of small molecules to stimulate the polymerase activity of POLγ was analyzed in a quantitative fluorescence SYBR Green I assay with fluorescence intensity (FI) readout.
# In the presence of dNTPs, wild type human POLγ and mutant derivatives thereof were incubated with single-stranded, circular M13mp18 ssDNA hybridized to a short DNA oligonucleotide that functions as a primer for initiation of DNA synthesis. POLγ and mutant derivatives thereof will extend the primer and use the M13mp18 molecule as a template to synthesize long stretches of double-stranded DNA. SYBR Green I, which is a double-stranded DNA-binding dye, was used to quantify formation of double-stranded DNA in the reaction. When bound to double-stranded DNA, SYBR Green I fluorescence increases by up to 100-fold.
# The assay was performed in the 384-well plate format. Upon addition of compounds, changes in double-stranded DNA synthesis activity can be monitored by following effects on fluorescent intensity.
# The reactions also contained the accessory POLγB subunit, and the human mitochondrial single-stranded DNA binding protein (mtSSB).
# The DNA template mixture used in the assay contained 0.5 nM primed M13 mp18 ssDNA, 400 nM mtSSB, 0.1 mM Tris-HCl (pH 8.0), 0.1 mM dNTP, 10 mM MgCl2, 0.1 mg/mL BSA, 1 mM TCEP solution, and 0.02% Triton X-100. The DNA template mixture for the wild type protein contained either 100 μM dNTP, 1 μM dNTP, or 0.1 μM dNTP, designated in Table 2 as 100 μM, 1 μM, and 0.1 μM, respectfully.
# Microplates with compounds (0.1 μL in each well) to be tested in the assay were prepared from 10 mM compound stocks in 100% DMSO, and equal amounts of DMSO without any compound were added to positive and negative control wells.
# The protein mixture was dispensed (5 μL into each well) into compound plates and incubated at 37° C. for 15 minutes. After incubation, 5 μL of the DNA template mixture was dispensed into each well. The plates were then incubated at 37° C. for 2 hours.
# During incubation, a combined stop buffer and detection reagent solution was prepared. The buffer contained 25 mM EDTA (pH 8.0), 0.02% Triton X-100, and SYBR Green I [Invitrogen] diluted 10,000× (for fluorescent readout). EDTA will stop the enzymatic reaction by chelating magnesium ions.
row,Compound,AC50
1,"Cc1cc(S(=O)(=O)Nc2cccc(C(=O)N(C)C(C)CO)c2)c(C)cc1Cl (single isomer, unassigned) [Example 14, 3-((4-chloro-2,5-dimethylphenyl)sulfonamido)-N-(1-hydroxypropan-2-yl)-N-methylbenzamide]",13 µM
2,"Cc1ccc(C)c(S(=O)(=O)Nc2cccc(C(=O)N3CCCCC3C#N)c2)c1 (centres unmarked) [Example 2, N-(3-(2-cyanopiperidine-1-carbonyl)phenyl)-2,5-dimethylbenzenesulfonamide]",8 µM
3,"Cc1ccc(C)c(S(=O)(=O)Nc2cccc(C(=O)N3CCCCC3)c2)c1 [Example 3, 2,5-dimethyl-N-(3-(piperidine-1-carbonyl)phenyl)benzene sulfonamide]",28 µM
4,"Cc1ccc(C)c(S(=O)(=O)Nc2cccc(C(=O)N3CCCC[C@@H]3C)c2)c1 [Example 6, (S)-2,5-dimethyl-N-(3-(2-methylpiperidine-1-carbonyl)phenyl)benzenesulfonamide]",13 µM
5,"Cc1ccc(C)c(S(=O)(=O)Nc2cccc(C(=O)N3CCOCC3C#N)c2)c1 (centres unmarked) [Example 7, N-(3-(3-cyanomorpholine-4-carbonyl)phenyl)-2,5-dimethylbenzenesulfonamide]",10 µM
6,"Cc1cc(S(=O)(=O)Nc2cccc(C(=O)N3CCCC[C@H]3C)c2)c(C)cc1Cl [Example 9, (R)-4-chloro-2,5-dimethyl-N-(3-(2-methylpiperidine-1-carbonyl)phenyl)benzenesulfonamide]",2 µM
7,"Cc1cc(S(=O)(=O)Nc2cccc(C(=O)N3CCC[C@H]3C)c2)c(C)cc1Cl [Example 10, (R)-4-chloro-2,5-dimethyl-N-(3-(2-methylpyrrolidine-1-carbonyl)phenyl)benzenesulfonamide]",1 µM
8,"Cc1cc(S(=O)(=O)Nc2cccc(C(=O)NCc3ccccc3)c2)c(C)cc1Cl [Example 11, N-benzyl-3-((4-chloro-2,5-dimethylphenyl)sulfonamido)benzamide]",6 µM
9,"Cc1cc(S(=O)(=O)Nc2cccc(-c3ncco3)c2)c(C)cc1Cl [Example 17, 4-chloro-2,5-dimethyl-N-(3-(oxazol-2-yl)phenyl)benzenesulfonamide]",2 µM
10,"Cc1cc(S(=O)(=O)Nc2cccc(-c3nccn3C)c2)c(C)cc1Cl [Example 19, 4-chloro-2,5-dimethyl-N-(3-(1-methyl-1H-imidazol-2-yl)phenyl)benzenesulfonamide]",3 µM
11,"Cc1cc(S(=O)(=O)Nc2cccc(-c3ncc(C#N)s3)c2)c(C)cc1Cl [Example 96, 4-chloro-N-(3-(5-cyanothiazol-2-yl)phenyl)-2,5-dimethylbenzenesulfonamide]",> 100 µM
12,"Cc1cnc(-c2cc(NS(=O)(=O)c3cc(C)c(Cl)cc3C)ccc2C)s1 [Example 103, 4-chloro-2,5-dimethyl-N-(4-methyl-3-(5-methylthiazol-2-yl)phenyl)benzenesulfonamide]",58 µM
13,"Cc1cc(S(=O)(=O)Nc2ccc3c(c2)CC(=O)N3)c(C)cc1Cl [Example 185, 4-chloro-2,5-dimethyl-N-(2-oxoindolin-5-yl)benzenesulfonamide]",8 µM
14,"(R)-2,5-dimethyl-N-(3-(3-methylmorpholine-4-carbonyl)phenyl)benzenesulfonamide [Example 1]",12 µM

# The remaining lines, values ahead:
row,AC50,Compound
1,25 µM,"Cc1ccc(C)c(S(=O)(=O)Nc2cccc(C(=O)NCC3CC3)c2)c1 [Example 4, N-(cyclopropylmethyl)-3-((2,5-dimethylphenyl)sulfonamido)benzamide]"
2,11 µM,"Cc1ccc(C)c(S(=O)(=O)Nc2cccc(C(=O)N3CCCC[C@H]3C)c2)c1 [Example 5, (R)-2,5-dimethyl-N-(3-(2-methylpiperidine-1-carbonyl)phenyl)benzenesulfonamide]"
3,4 µM,"Cc1ccc(C)c(S(=O)(=O)Nc2cccc(C(=O)N[C@@H](C)C3CC3)c2)c1 [Example 8, (S)-N-(1-cyclopropylethyl)-3-((2,5-dimethylphenyl)sulfonamido)benzamide]"
4,3 µM,"Cc1cc(S(=O)(=O)Nc2cccc(C(=O)N(C)C)c2)c(C)cc1Cl [Example 12, 3-((4-chloro-2,5-dimethylphenyl)sulfonamido)-N,N-dimethylbenzamide]"
5,3 µM,"Cc1cc(S(=O)(=O)Nc2cc(F)cc(C(=O)N3CCC[C@H]3C)c2)c(C)cc1Cl [Example 13, (R)-4-chloro-N-(3-fluoro-5-(2-methylpyrrolidine-1-carbonyl)phenyl)-2,5-dimethylbenzenesulfonamide]"
6,2 µM,"Cc1cc(S(=O)(=O)Nc2cccc(-c3nccs3)c2)c(C)cc1Cl [Example 16, 4-chloro-2,5-dimethyl-N-(3-(thiazol-2-yl)phenyl)benzenesulfonamide]"
7,5 µM,"Cc1cc(S(=O)(=O)Nc2cccc(-c3ccn(C)n3)c2)c(C)cc1Cl [Example 18, 4-chloro-2,5-dimethyl-N-(3-(1-methyl-1H-pyrazol-3-yl)phenyl)benzenesulfonamide]"
8,> 100 µM,"Cc1cnc(-c2ccc(C)c(NS(=O)(=O)c3cc(C)c(Cl)cc3C)c2)s1 [Example 98, 4-chloro-2,5-dimethyl-N-(2-methyl-5-(5-methylthiazol-2-yl)phenyl)benzenesulfonamide]"
9,> 100 µM,"Cc1cnc(-c2ccc(Cl)c(NS(=O)(=O)c3cc(C)c(Cl)cc3C)c2)s1 [Example 102, 4-chloro-N-(2-chloro-5-(5-methylthiazol-2-yl)phenyl)-2,5-dimethylbenzenesulfonamide]"
